The record followed here is patent US4428938A, “Peptides affecting the immune regulation and a process for their preparation” (Richter Gedeon Vegyeszeti Gyar Rt., priority 1981, dated 1984).

Non-standard residues stand in square brackets, D forms with d. Residues, ends and D or L forms follow the SMILES beside them. pGlu = O=C1CC[C@@H](C(=O)O)N1

Test [1] concerns lymphocytes of healthy persons. Briefly: Active E-rosette test, lymphocytes of healthy persons. The settings on record: for E-rosette forming activity, percentage amount of active lymphocytes: n = 4. The format is cell-based, human. As to the method: (§1) The active E-rosette test was carried out according to a modified method of Wybran et al [Wybran et al: New Engl. J. Med. 292, 475 (1975)] by the lymphocites of healthy and autoimmune patients (rheumatoid arthritis and systemic lupus erythematosus). To 50 μl of a lymphocyte cell suspension 10^-3 -10^-11 moles/lit. solutions of the test material were added and the mixture was incubated in an atmosphere containing 5.0% of carbon dioxide, at 37° C. for 60 minutes. Thereafter 50 μlit. of a 1% sheep erythrocite suspension were added and the mixture was centrifuged at 1000 r.p.m. for 10 minutes followed by shaking with a modified Gallenkampf-shaker (shaking time: 30 sec, stroke: 8 cm, shaking frequency: 65/min.). The rosettes were fixed with a 0.1% glutaric aldehyde (50 μlit. for each tube, 3 min.). Lymphocytes bonding more than three sheep erythrocite were counted under a microscope and 4×100 cells were evaluated. The separated lymphocytes contain macrophages and polymorphonuclear cells (up to 10%) as an impurity. The number of the cells forming the rosettes was corrected by this value each case.

The test system of test [2] is antibody production against sheep erythrocyte. Briefly: Effect on antibody production (Ceglowski's method), agglutination titer. Type of test: in vivo, H. Wistar rats.
The test system of test [3] is lymphocytes of patients suffering from rheumatoid arthritis. Briefly: Active E-rosette test, lymphocytes of rheumatoid arthritis patients. Type of test: cell-based, human. To be noted: for E-rosette forming activity, percentage amount of active lymphocytes: n = 4; for Effect on E-rosette forming activity (in words): 10^-9 moles/lit. The procedure:
as §1

Test [4] relates to antibody production against sheep erythrocyte. Nature of the test: Effect on antibody production (Ceglowski's method), agglutination titer. The format is in vivo, H. Wistar rats. The procedure:
(1) The effect on antibody production was tested according to Ceglowski's method [Ceglowski: Ann. N.Y. Acad. Sci. 249, 343 (1975)]. New-born H. Wistar rats were treated with single 25 μlit. doses of 4×10^-3 -4×10^-7 moles/lit. of the test material (9 animals for each dose) at the latest at the 12th hour after birth. The 14-day animals were then immunized with a sheep erythrocyte suspension administering 0.5 ml. of a 5% sheep erythrocyte suspension each animal intraperitoneally. On the 7th day after immunization the animals were decapitated. The blood of three animals was mixed and from the serum obtained (after centrifuging at 3000 r.p.m. for 10 minutes) the titers for antibodies were determined by the method of Takatsy [Takatsy: Acta Microbiol. Acad. Sci. Hung. 3, 191 (1955)]. The results are expressed in agglutination titers. The titer corresponds to the […] dilution of the serum in which agglutination can be observed.
The source holds these as a separate data set.

The subject of test [5] is lymphocytes forming the E-rosette. Nature of the test: E-rosette formation, summary statement. Type of test: cell-based. As to the method: as §1
The subject of test [6] is plaque forming spleen cells (PFC). Nature of the test: Effect on plaque forming spleen cells (PFC). The format is in vivo, H. Wistar rats. The settings on record: for In vivo effect on plaque forming spleen cells (in words): in lower doses; for Ratio of the plaque formation produced by treated and untreated (control) animals: new-born animals. The procedure: (2) The number of the cells producing a specific antibody was determined by the method of Canningham Handbook of Experimental Immunology (editor: D. M. Weir), 2nd Volume, p. 285, Blackwell, Oxford-London (1978). According to this method from the spleen cells of immunized animals, sheep erythrocyte suspension and complement a homogenous suspension was prepared and it was placed into a chamber suitable for forming a single cell layer. Around the spleen cells lytic areolas are formed, the number of which is identical with the number of the cells producing a specific antibody (plaque forming cells, PFC).
The test animals, not later than 12 hour after birth, were given a single i.p. dose of the test material. According to the method (1) three different doses of each substance were tested. On the 7th day after immunization the plaque formation of the spleen cells isolated from the animals was examined.

Setting [7] is: single 25 μlit. dose of 4·10^-8 moles/liter to new-born rats.
[8] abbreviates: single 25 μlit. dose of 4·10^-4 moles/liter to new-born rats.
[9] abbreviates: single 25 μlit. dose of 4·10^-6 moles/liter to new-born rats.
The mark [10] stands for this setting: single i.p. dose 1.0·10^-4 mmoles.
Where [11] appears, read: single i.p. dose 1.0·10^-6 mmoles.
The mark [12] stands for this setting: single i.p. dose 1.0·10^-8 mmoles.

Regarding `N=C(N)NCCC[C@H](N)C(=O)N[C@@H](CCCCN)C(=O)N[C@@H](CC(=O)O)C(=O)O` [Arg--Lys--Asp, Arg-Lys-Asp] (H-Arg-Lys-Asp-OH), the “E-rosette forming activity, percentage amount of active lymphocytes” value in test [1] (10^-3 moles/liter) is 29.9%; in test [1] (10^-5 moles/liter) it was 34.1%; in test [1] (10^-7 moles/liter), 41.7%; in test [1] (10^-9 moles/liter), 39.3%; in test [1] (10^-11 moles/liter), 35.9%; in test [3] (10^-3 moles/liter), 27.2%. Besides, the “E-rosette forming activity, percentage amount of active lymphocytes” value came out at 28.6% in test [3] (10^-5 moles/liter), 28.8% in test [3] (10^-7 moles/liter), 30.7% in test [3] (10^-9 moles/liter) and 28.4% in test [3] (10^-11 moles/liter). Besides, the “Effect on E-rosette forming activity (in words)” value in test [1] (10^-7 moles/lit.) was “significant stimulating effect”; in test [3], “significantly stimulated”. Besides, the entries for the “Antibody production, agglutination titer (X ± S.D.)” value (“Antibody production … (X ± S.D.)” for short) in test [2] (setting [7]), in test [4] (setting [8]) and in test [4] (setting [9]) were 6.0 ± 1.2, 6.0 ± 0 and 7.3 ± 0.6, respectively. In test [4] (4.10^-6 moles/lit.), the “In vivo effect on the antibody production (in words)” value was “significant stimulating activity”. Besides, the “Activity: increases the number of the lymphocytes forming the E-rosette” value in test [5] is “active”. Moreover, in test [6], the “In vivo effect on plaque forming spleen cells (in words)” value was “about two-times increase”. In addition, the “Ratio of the plaque formation produced by treated and untreated (control) animals” value (shortened to “Ratio of the plaque formation produced”) in test [6] (setting [10]) stood at 0.7; in test [6] (setting [11]), 2.1; in test [6] (setting [12]) it was 1.8.

For the compound `CC(C)[C@H](NC(=O)[C@H](CC(=O)O)NC(=O)[C@H](CCCCN)NC(=O)[C@@H](N)CCCNC(=N)N)C(=O)O` [Arg--Lys--Asp--Val, Arg-Lys-Asp-Val] (H-RKDV-OH), the “E-rosette forming activity, percentage amount of active lymphocytes” value in test [1] (10^-3 moles/liter) worked out at 41.3%; in test [1] (10^-5 moles/liter), 39.1%; in test [1] (10^-7 moles/liter) it was 38.5%; in test [1] (10^-9 moles/liter) it was 43.0%; in test [1] (10^-11 moles/liter) it was 33.7%; in test [3] (10^-3 moles/liter) it was 36.2%. The “E-rosette forming activity, percentage amount of active lymphocytes” value in test [3] (10^-5 moles/liter) was 31.5%; in test [3] (10^-7 moles/liter) it was 34.4%; in test [3] (10^-9 moles/liter), 36.8%; in test [3] (10^-11 moles/liter) it was 32.6%. The “Effect on E-rosette forming activity (in words)” value in test [1] (10^-9 moles/lit.) is “significant stimulating effect”; in test [3] it was “significantly stimulated”. The “Activity: increases the number of the lymphocytes forming the E-rosette” value in test [5] is “active”. Further, the “Ratio of the plaque formation produced” value in test [6] (single i.p. dose 2.5·10^-3 mmoles) is reported as 0.34; in test [6] (single i.p. dose 2.5·10^-4 mmoles), 0.8.

For `CC(C)[C@H](NC(=O)[C@H](CC(=O)O)NC(=O)[C@H](CCCCN)NC(=O)[C@@H](N)CCCNC(=N)N)C(N)=O` [Arg--Lys--Asp--Val--NH2, Arg-Lys-Asp-Val-NH2] (H-RKDV-NH2), the “E-rosette forming activity, percentage amount of active lymphocytes” value in test [1] (10^-3 moles/liter) is on record as 29.0%; in test [1] (10^-5 moles/liter), 33.8%; in test [1] (10^-7 moles/liter), 35.1%; in test [1] (10^-9 moles/liter), 26.6%; in test [1] (10^-11 moles/liter), 38.1%; in test [3] (10^-3 moles/liter), 31.5%. Also, the “E-rosette forming activity, percentage amount of active lymphocytes” value in test [3] (10^-5 moles/liter) is listed as 29.8%; in test [3] (10^-7 moles/liter), 26.9%; in test [3] (10^-9 moles/liter), 34.8%; in test [3] (10^-11 moles/liter) it was 28.2%. Moreover, the “Effect on E-rosette forming activity (in words)” value in test [1] (10^-11 moles/lit.) is “stimulating effect”; in test [3] it was “significantly stimulated”. Further, the “In vivo effect on the antibody production (in words)” value in test [2] (4.10^-8 moles/lit.) is reported as “significant stimulating activity”. For the same compound, the “Antibody production … (X ± S.D.)” value in test [2] (setting [7]) amounted to 6.8 ± 0.8; in test [4] (setting [8]), 5.2 ± 2.2; in test [4] (setting [9]), 6.2 ± 2.0. Moreover, the “In vivo effect on plaque forming spleen cells (in words)” value in test [6] is on record as “about two-times increase”. The “Ratio of the plaque formation produced” value in test [6] (setting [10]) came to 0.3; in test [6] (setting [11]) it was 0.52; in test [6] (setting [12]), 2.7.

For `CC(C)[C@H](NC(=O)[C@H](CC(=O)O)NC(=O)[C@H](CCCCN)NC(=O)[C@H](CCCNC(=N)N)NC(=O)[C@@H]1CCC(=O)N1)C(=O)N[C@@H](Cc1ccc(O)cc1)C(=O)O` [Glp--Arg--Lys--Asp--Val--Tyr, Glp-Arg-Lys-Asp-Val-Tyr] ([pGlu]RKDVY-OH), the “E-rosette forming activity, percentage amount of active lymphocytes” value in test [1] (10^-3 moles/liter) was found to be 29.9%; in test [1] (10^-5 moles/liter), 22.5%; in test [1] (10^-7 moles/liter), 29.4%; in test [1] (10^-9 moles/liter), 25.5%; in test [1] (10^-11 moles/liter) it was 29.9%; in test [3] (10^-3 moles/liter), 24.1%. In addition, the “E-rosette forming activity, percentage amount of active lymphocytes” value in test [3] (10^-5 moles/liter) is given as 22.7%; in test [3] (10^-7 moles/liter), 22.6%; in test [3] (10^-9 moles/liter), 26.6%; in test [3] (10^-11 moles/liter), 24.9%. In addition, the “Antibody production … (X ± S.D.)” value in test [2] (footnote y: concentration 2·10^-1 moles/liter) was found to be 5.5 ± 0.6; in test [4] (column 4·10^-3 moles/liter, footnote x: concentration is half of the head value), 3.0 ± 1.0; in test [4] (column 4·10^-5 moles/liter, footnote x: concentration is half of the head value), 5.2 ± 0.8. Besides, in test [4] (2.10^-3 moles/lit.), the “In vivo effect on the antibody production (in words)” value is on record as “inhibiting activity”.
